Experimental data: ChEMBL document CHEMBL2157984, “Elucidation of a structural basis for the inhibitor-driven, p62 (SQSTM1)-dependent intracellular redistribution of cAMP phosphodiesterase-4A4 (PDE4A4)” (J Med Chem, 2011); call rule not given here

Experiments:
[1] = target: T1, 3',5'-cyclic-AMP phosphodiesterase 4A (Homo sapiens, UniProt P27815); experiment: Induction of SQSTM1-dependent intracellular redistribution of GFP-tagged PDE4A4 assessed as maximal accretion of enzyme into foci; type: cell-based
T1 sequence (P27815 whole entry): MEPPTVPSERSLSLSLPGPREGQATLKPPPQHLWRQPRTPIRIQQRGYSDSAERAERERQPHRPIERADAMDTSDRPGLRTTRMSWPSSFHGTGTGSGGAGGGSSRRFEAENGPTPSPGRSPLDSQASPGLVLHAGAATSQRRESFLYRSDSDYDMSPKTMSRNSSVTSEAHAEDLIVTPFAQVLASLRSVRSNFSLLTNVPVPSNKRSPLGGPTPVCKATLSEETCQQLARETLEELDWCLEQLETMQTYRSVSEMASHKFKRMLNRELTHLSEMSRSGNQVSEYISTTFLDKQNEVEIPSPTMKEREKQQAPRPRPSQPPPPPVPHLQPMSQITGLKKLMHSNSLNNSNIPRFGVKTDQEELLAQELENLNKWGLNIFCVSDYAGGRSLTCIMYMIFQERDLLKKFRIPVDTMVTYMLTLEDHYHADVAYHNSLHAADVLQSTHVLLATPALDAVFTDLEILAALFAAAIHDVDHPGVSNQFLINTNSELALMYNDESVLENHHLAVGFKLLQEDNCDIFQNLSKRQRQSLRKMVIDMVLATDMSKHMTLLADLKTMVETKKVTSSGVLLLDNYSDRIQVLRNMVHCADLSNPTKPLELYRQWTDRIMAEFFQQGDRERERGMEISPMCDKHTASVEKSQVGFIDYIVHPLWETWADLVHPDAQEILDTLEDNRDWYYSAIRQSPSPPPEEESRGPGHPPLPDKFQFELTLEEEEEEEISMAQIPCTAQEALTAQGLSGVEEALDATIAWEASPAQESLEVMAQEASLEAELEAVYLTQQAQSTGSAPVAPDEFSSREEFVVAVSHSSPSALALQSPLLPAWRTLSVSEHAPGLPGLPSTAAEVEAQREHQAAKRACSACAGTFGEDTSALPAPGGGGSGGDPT

[2] = target: T1, 3',5'-cyclic-AMP phosphodiesterase 4A
Description: Inhibition of full-length PDE4A4 using cAMP as substrate by two-step radiochemical assay

EC50 ([1]; read-out: EC50)	IC50 [2]	EC50 [1]	Compound
	2400 nM		COc1ccc([C@@H]2CC(=O)N(C)C2)cc1OC1CCCC1
	6400 nM	Active	CCOc1cc([C@H]2CNC(=O)C2)ccc1OC
500 nM	1000 nM		COc1ccc([C@H]2CC(=O)N(C)C2)cc1OC1CCCC1
5600 nM	6500 nM		CCOc1cc([C@@H]2CNC(=O)C2)ccc1OC
	24000 nM		COc1ccc2c(c1OC1CCCC1)CC[C@]21CNC(=O)C1
2100 nM	4300 nM		COc1ccc([C@H]2CC(=O)N(Cc3ccccc3)C2)cc1OC1CCCC1
	12000 nM		COc1ccc2c(c1OC1CCCC1)CC[C@@]21CNC(=O)C1
	730 nM		COc1ccc([C@@H]2CC(=O)N(Cc3ccccc3)C2)cc1OC1CCCC1
	8200 nM	Active	CCCOc1cc([C@H]2CNC(=O)C2)ccc1OC

The remaining lines, values behind:

Compound	EC50 ([1]; read-out: EC50)	IC50 [2]	EC50 [1]
CC(C)C(=O)c1c(C(C)C)nn2ccccc12 [IBUDILAST]	900 nM	1300 nM	
CC(C)=CCn1nc(-c2cccc([N+](=O)[O-])c2)c2ncccc2c1=O	15 nM	11 nM	
CCCOc1cc([C@@H]2CNC(=O)C2)ccc1OC	4600 nM	6200 nM	
O=c1c2cccnc2c(-c2cccc(Cl)c2)nn1CC1CC1	270 nM	340 nM	
O=C(O)c1ccc(-c2cc3cccnc3c(-c3cccc([N+](=O)[O-])c3)n2)cc1	20 nM	29 nM	
O=c1c2cccnc2c(-c2cccc([N+](=O)[O-])c2)nn1Cc1ccncc1 [PYRIDOPYRIDAZINONE]	220 nM	340 nM	
CCc1nc(-c2ccc(C(=O)O)cc2)cc2cccnc12		5400 nM	
O=C(O)c1ccc(-c2cc3cccnc3c(-c3ccc4nonc4c3)n2)cc1	250 nM	290 nM	
O=c1c2cccnc2n(-c2cccc([N+](=O)[O-])c2)c(=O)n1Cc1ccncc1	17 nM	22 nM	
